The values that follow come from PubChem BioAssay (NCI).

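96-well plates; 48 h exposure; 5 concentrations. Endpoints by linear interpolation between flanking doses. Not reached: highest tested concentration assigned. Here, GI50 denotes the concentration required for 50% inhibition of growth. The concentration for full growth arrest is given as TGI.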

Some test systems named below: T-47D breast; HS 578T breast; DMS 114 small cell lung; DLD-1 colon; LXFL 529 NSCLC; DMS 273 small cell lung; SN12K1 renal; P388/ADR leukemia; HOP-18 NSCLC; P388 leukemia; RXF-631 renal.
What all share (assay): NCI tumour cell line growth inhibition, 48 h

Consider `CC1(C)[C@@H]2CC[C@]1(C)[C@H](OC(=O)/C=C/c1ccccc1)C2`, for which the figures for the TGI in the experiment with T-47D breast and in the experiment with HS 578T breast were 34.2 µM and 41.7 µM, respectively.

Consider `CC(CC(N)C(=O)O)C(=O)O` (stereo unspecified), for which the TGI in the experiment with T-47D breast and in the experiment on HS 578T breast was greater than 100 µM in each case.

Turning to `C=CCN1/C(=C(\C#N)c2nc3ccccc3[nH]2)Sc2c1nc[nH]c2=O`, the TGI in the experiment with DMS 114 small cell lung, in the experiment with DLD-1 colon, in the experiment on LXFL 529 NSCLC and in the experiment with DMS 273 small cell lung was greater than 100 µM throughout.

As for `COc1cc(OC)cc(-c2ccc(-c3ccc(C(=N)N)cn3)o2)c1`, in the experiment with HS 578T breast, the GI50 was 1.66 µM and the TGI amounted to 3.58 µM.

In the case of `COc1nc2cccc(C(O)c3ccccc3)c2nc1-c1ccccc1` (stereo unspecified), the TGI turned out to be 61.6 µM in the experiment on T-47D breast and 5.62 µM in the experiment on HS 578T breast.

As for `N#CC(N=Nc1ccccc1C(=O)O)C(N)=O` (stereo unspecified), the TGI in the experiment on T-47D breast is greater than 100 µM.

Take `Cc1[nH]c(=O)[nH]c(=O)c1/C=C/C(=O)O` (tested in a mixture with another compound): the TGI in the experiment on DMS 114 small cell lung, with DLD-1 colon, in the experiment on SN12K1 renal, in the experiment on P388/ADR leukemia, with HOP-18 NSCLC and with P388 leukemia was greater than 625 µM each time. Also, the TGI in the experiment on DMS 273 small cell lung is greater than 625 µM.

On to `OCC1COc2cc(Cl)c(Cl)cc2O1` (stereo unspecified), for which the TGI in the experiment on T-47D breast and in the experiment on HS 578T breast was greater than 10 µM in each case.

Take `CCC(C)C(N)C(=O)NC(CC(N)=O)C(=O)NC(CC(C)C)C(=O)NC(CCCCN)C(=O)NC(C)C(=O)NC(CC(C)C)C(=O)NC(C)C(=O)NC(C)C(=O)NC(CC(C)C)C(=O)NC(C)C(=O)NC(CCCCN)C(=O)NC(CCCCN)C(=O)NC(C(=O)NC(CC(C)C)C(N)=O)C(C)CC` (stereo unspecified): the TGI with DMS 114 small cell lung is 28.1 µM; with DLD-1 colon, 25 µM; in the experiment with LXFL 529 NSCLC, 28.7 µM; in the experiment on HOP-18 NSCLC, 13.5 µM; with RXF-631 renal it was 19.5 µM; with DMS 273 small cell lung, 17 µM.

In the case of `NCCSc1cc(O)c2c(c1N)C(=O)c1ccccc1C2=O`, the TGI in the experiment on DLD-1 colon is greater than 100 µM; in the experiment on LXFL 529 NSCLC it was greater than 100 µM; in the experiment with RXF-631 renal, 97.1 µM.

Consider `CSCC[C@@H]1C(=O)N(C)[C@H](C(C)(C)C)N1C(=O)c1ccccc1`, for which the TGI in the experiment with DMS 114 small cell lung, in the experiment with DLD-1 colon, with SN12K1 renal, in the experiment on HOP-18 NSCLC, in the experiment with P388 leukemia and in the experiment on DMS 273 small cell lung was greater than 100 µM each time.

As for `COc1cc2c3cc1Oc1c(O)c(OC)cc4c1C(Cc1ccc(O)c(c1)Oc1ccc(cc1)CC3N(C)CC2)N(C)CC4` (stereo unspecified), the TGI with DMS 114 small cell lung was 44.8 µM; in the experiment with LXFL 529 NSCLC, 17.1 µM; in the experiment with HOP-18 NSCLC, 45 µM; in the experiment on DMS 273 small cell lung, 30.6 µM.
